Test results taken from ChEMBL document CHEMBL2434845, “Design, synthesis and efficacy of novel G protein-coupled receptor kinase 2 inhibitors” (Eur J Med Chem, 2013).
Active and inactive are the calls of the source. The calls are words filed in the database; no cut-off is given here. Peptide text beside a SMILES is read from it.

Assays:
[1] = target: T1, Beta-adrenergic receptor kinase 1 (Homo sapiens) (UniProt P25098); test: Inhibition of GRK-2 (unknown origin)-mediated phosphorylation of rhodopsin in bovine-rod outer segment membranes at 1 uM incubated under white light condition for 15 mins measured after 30 mins by autoradiography in presence of [gamma32P]-ATP; type: cell membranes
T1 sequence (whole entry): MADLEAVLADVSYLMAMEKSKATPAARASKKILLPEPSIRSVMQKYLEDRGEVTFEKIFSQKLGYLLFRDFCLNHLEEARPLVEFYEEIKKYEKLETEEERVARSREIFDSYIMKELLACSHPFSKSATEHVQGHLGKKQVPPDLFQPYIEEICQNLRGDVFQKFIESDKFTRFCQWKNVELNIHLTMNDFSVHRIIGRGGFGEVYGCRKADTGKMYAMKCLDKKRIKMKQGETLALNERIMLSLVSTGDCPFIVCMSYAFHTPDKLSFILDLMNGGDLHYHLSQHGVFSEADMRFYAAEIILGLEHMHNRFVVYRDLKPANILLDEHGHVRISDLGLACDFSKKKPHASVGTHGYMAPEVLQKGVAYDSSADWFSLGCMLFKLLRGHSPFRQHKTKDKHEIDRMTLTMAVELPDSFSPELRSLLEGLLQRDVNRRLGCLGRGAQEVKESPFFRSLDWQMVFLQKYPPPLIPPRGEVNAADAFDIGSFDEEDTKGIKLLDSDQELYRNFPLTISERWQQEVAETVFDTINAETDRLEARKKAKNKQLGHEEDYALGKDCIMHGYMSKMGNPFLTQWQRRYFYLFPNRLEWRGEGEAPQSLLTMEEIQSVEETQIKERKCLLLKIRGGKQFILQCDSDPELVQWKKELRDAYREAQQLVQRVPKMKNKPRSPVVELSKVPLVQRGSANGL

[2] = target: G protein-coupled receptor kinase 5 (Homo sapiens) (UniProt P34947); test: Inhibition of GRK-5 (unknown origin)-mediated phosphorylation of rhodopsin in bovine-rod outer segment membranes incubated under white light condition for 15 mins measured after 30 mins by autoradiography in presence of [gamma32P]-ATP; type: cell membranes; design: concentration or dose not given beside the values
HEK293 [3] = test: Cellular uptake in HEK293 cells overexpressing human beta2 adrenergic receptor at 1 uM after 1 hr by confocal microscopic analysis; type: ADME, cell-based; settings: hek293, 1 h
HEK293 [4] = test: Cellular uptake in HEK293 cells overexpressing human beta2 adrenergic receptor at 1 to 10 uM after 1 hr by fluorescence assay; type: ADME, cell-based; settings: hek293, 1 h
[5] = target: T2, Beta-adrenergic receptor kinase 1 (Homo sapiens, UniProt P25098); test: (§1) Inhibition of GRK-2 (unknown origin)-mediated phosphorylation of rhodopsin in bovine-rod outer segment membranes incubated under white light condition for 15 mins measured after 30 mins by autoradiography in presence of [gamma32P]-ATP; type: cell membranes
T2 sequence (P25098 whole entry): T1 sequence (whole entry)

[6] = target: T1, Beta-adrenergic receptor kinase 1 (Homo sapiens); test: Inhibition of GRK2 in HEK293 cells overexpressing human beta2 adrenergic receptor assessed as effect on cAMP production at 1 uM after 1 hr by enzyme immunoassay; type: cell-based
[7] = target: T1, Beta-adrenergic receptor kinase 1 (Homo sapiens); test: Inhibition of GRK2 in HEK293 cells overexpressing human beta2 adrenergic receptor assessed as effect on isoproterenol-induced cAMP production at 1 uM preincubated for 1 hr prior to isoproterenol-stimulation measured after 15 mins by enzyme immunoassay; type: cell-based
[8] = target: T1, Beta-adrenergic receptor kinase 1 (Homo sapiens); test: as §1; type: cell membranes
[9] = target: T1, Beta-adrenergic receptor kinase 1 (Homo sapiens); test: Inhibition of GRK2 in HEK293 cells overexpressing human beta2 adrenergic receptor assessed as increase in beta2 adrenergic receptor density at 1 uM after 1 hr by gamma counting analysis in presence of [125I]cyanopindolol; type: cell-based

G protein-coupled receptor kinase 5 (Homo sapiens), sequence (P34947 whole entry, looked up): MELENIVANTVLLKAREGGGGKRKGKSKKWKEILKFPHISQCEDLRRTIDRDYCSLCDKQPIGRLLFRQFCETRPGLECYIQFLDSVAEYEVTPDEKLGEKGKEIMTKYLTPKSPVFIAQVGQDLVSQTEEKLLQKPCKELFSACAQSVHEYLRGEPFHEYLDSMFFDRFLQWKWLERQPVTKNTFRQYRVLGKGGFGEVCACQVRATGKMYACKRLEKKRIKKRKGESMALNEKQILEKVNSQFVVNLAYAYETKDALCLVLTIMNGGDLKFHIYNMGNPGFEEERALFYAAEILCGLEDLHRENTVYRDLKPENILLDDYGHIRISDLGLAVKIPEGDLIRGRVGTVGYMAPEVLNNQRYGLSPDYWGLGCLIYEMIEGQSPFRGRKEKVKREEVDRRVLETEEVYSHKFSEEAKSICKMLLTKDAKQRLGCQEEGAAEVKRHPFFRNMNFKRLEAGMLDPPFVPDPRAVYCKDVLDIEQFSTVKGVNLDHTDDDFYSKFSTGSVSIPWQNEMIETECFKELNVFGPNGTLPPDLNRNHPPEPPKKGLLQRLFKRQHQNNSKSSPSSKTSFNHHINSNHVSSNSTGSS

SMILES | inhibition [1] | inhibition [2] | also measured
CC(C)C[C@@H]1NC(=O)[C@H](CC(C)C)NC(=O)[C@H](CCCCN)NC(=O)[C@H](CC(=O)O)NC(=O)[C@H](Cc2cnc[nH]2)NC(=O)CNC(=O)[C@H](CCCNC(=N)N)NC1=O (cyclo(DKLLRGH)) | 47.2% | < 5% | –
CC(C)C[C@@H]1NC(=O)CNC(=O)[C@H](CO)NC(=O)[C@H](Cc2cnc[nH]2)NC(=O)[C@@H](CCCNC(=N)N)NC(=O)[C@H](CCCNC(=N)N)NC(=O)[C@H](CC(C)C)NC1=O | 47.8% | < 5% | –
CC[C@H](C)[C@@H]1NC(=O)[C@H](CO)NC(=O)[C@H](Cc2cnc[nH]2)NC(=O)[C@@H](CCCNC(=N)N)NC(=O)[C@H](CCCNC(=N)N)NC(=O)[C@H](CC(C)C)NC(=O)[C@H](CC(C)C)NC(=O)CNC1=O | 37.2% | < 5% | –
CC(C)C[C@@H]1NC(=O)[C@H](CCCCN)NC(=O)[C@H](CC(=O)O)NC(=O)[C@H](Cc2cnc[nH]2)NC(=O)[C@@H](CCCNC(=N)N)NC(=O)[C@H](CCCNC(=N)N)NC(=O)[C@H](CC(C)C)NC1=O | 36.3% | < 5% | –
CC(C)C[C@H](NC(=O)CN)C(=O)N[C@@H](CC(C)C)C(=O)N[C@@H](CCCNC(=N)N)C(=O)N[C@H](CCCNC(=N)N)C(=O)N[C@@H](Cc1cnc[nH]1)C(=O)N[C@@H](CO)C(=O)O | 47.6% | < 5% | –
CC[C@H](C)[C@H](NC(=O)[C@H](CO)NC(=O)[C@H](Cc1cnc[nH]1)NC(=O)[C@@H](CCCN=C(N)N)NC(=O)[C@H](CCCN=C(N)N)NC(=O)[C@H](CC(C)C)NC(=O)[C@H](CC(C)C)NC(=O)CN)C(=O)O | – | – | Drug uptake (HEK293 [3]): Active; Drug uptake (HEK293 [4]): Active; IC50 [5]: 340 nM
CC[C@H](C)[C@H](NC(=O)[C@H](CO)NC(=O)[C@H](Cc1cnc[nH]1)NC(=O)[C@@H](CCCNC(=N)N)NC(=O)[C@H](CCCNC(=N)N)NC(=O)[C@H](CC(C)C)NC(=O)[C@H](CC(C)C)NC(=O)CN)C(=O)O | 49.6% | < 5% | inhibition [6]: Active; inhibition [7]: Active; inhibition [8]: Dose-dependent effect; inhibition [9]: Active
